In patent US20220220135A1 (BAR-ILAN UNIVERSITY, priority 2019, published 2022):

What was measured:
NPP1 = molecular target: T1, NPP1 (Homo sapiens, UniProt P22413); test: Stability to hydrolysis by human NPP1; type: in vitro ADME; conditions: analogue 100 μM; activity with 100 μM ATP = 100%
T1 sequence (P22413 1-925): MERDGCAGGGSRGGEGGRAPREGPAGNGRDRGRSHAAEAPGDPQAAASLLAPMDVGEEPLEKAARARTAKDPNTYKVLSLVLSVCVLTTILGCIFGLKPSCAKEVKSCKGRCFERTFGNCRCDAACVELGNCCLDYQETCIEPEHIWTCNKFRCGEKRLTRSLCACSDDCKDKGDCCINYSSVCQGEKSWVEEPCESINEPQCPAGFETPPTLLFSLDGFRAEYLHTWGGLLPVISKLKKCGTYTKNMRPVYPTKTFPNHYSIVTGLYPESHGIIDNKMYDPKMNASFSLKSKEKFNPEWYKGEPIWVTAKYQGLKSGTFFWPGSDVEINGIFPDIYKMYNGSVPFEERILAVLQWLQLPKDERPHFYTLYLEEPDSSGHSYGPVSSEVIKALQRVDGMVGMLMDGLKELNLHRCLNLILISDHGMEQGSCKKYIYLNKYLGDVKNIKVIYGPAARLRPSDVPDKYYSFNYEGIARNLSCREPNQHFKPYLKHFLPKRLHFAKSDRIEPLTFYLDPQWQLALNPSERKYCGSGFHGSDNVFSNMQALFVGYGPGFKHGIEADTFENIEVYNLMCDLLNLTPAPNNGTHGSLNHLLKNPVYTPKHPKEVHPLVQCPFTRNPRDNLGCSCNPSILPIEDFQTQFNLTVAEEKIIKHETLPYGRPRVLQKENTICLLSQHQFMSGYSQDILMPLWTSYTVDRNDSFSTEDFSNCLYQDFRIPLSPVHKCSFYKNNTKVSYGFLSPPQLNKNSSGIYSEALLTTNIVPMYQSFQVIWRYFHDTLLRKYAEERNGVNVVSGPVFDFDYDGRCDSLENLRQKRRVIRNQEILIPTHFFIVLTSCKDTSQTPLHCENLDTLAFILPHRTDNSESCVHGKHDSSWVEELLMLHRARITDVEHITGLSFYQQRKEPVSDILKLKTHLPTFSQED
Method: Uridine 5′-Pα,α-phosphorodithioate analogues, 9-12, were tested for their stability to degradation by NPP1 and NTPDases. These enzymes are involved in the metabolism of extracellular nucleotides. Analogues 9-12 were not hydrolyzed by hNPP1 (Table 2). […] Analogue 10 was hydrolyzed by hNTPDase1, -2 and -3 at 30-39% the rate of ATP and was slightly hydrolyzed by human NTPDase8 at 16% the rate of ATP.
Analogues 9-12 were incubated in the presence of the indicated ectonucleotidase at a concentration of 100 μM. The activity with 100 μM ATP was set as 100%, which was 329±108, 302±34, 263±51, 195±76 nmol of Pi·min−1·mg of protein−1 for NTPDase1, -2, -3 and -8, respectively, and 34±7 nmol for NPP1. Data presented are the mean±SEM of results from two experiments.

[1] = Stability to air-oxidation by 31P-NMR; type: physicochemical; conditions: aqueous solution, constant air flow, RT, 3 weeks
Excerpt: To evaluate the chemical stability of uridine-5′-Pα,α-dithiophosphate analogues, we measured by 31P-NMR the time-dependent percentage of the analogues remaining under basic and acidic conditions, and due to air-oxidation.
An aqueous solution of 10 was subjected to a constant air flow.

NTPDase2 = molecular target: T2, NTPDase2 (Homo sapiens, UniProt Q9Y5L3); test: Inhibition of ATPase activity of human NTPDase2; type: biochemical; conditions: analogue at 100 μM; ATP 100 μM as substrate
T2 sequence (Q9Y5L3 1-495): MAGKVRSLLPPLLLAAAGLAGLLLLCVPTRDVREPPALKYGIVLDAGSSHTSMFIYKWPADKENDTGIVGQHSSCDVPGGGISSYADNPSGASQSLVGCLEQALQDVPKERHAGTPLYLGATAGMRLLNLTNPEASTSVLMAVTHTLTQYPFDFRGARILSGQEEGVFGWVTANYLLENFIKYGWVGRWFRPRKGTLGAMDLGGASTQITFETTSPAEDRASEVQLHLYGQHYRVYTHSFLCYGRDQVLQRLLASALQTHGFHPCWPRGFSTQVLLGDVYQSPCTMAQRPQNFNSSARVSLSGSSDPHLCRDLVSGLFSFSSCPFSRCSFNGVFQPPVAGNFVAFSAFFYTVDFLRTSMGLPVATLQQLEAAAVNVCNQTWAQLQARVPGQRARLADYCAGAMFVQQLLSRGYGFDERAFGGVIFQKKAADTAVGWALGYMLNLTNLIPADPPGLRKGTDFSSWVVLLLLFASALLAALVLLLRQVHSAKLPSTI
Method: (§1) FIG. 2: Inhibition of NTPDases and NPPs by analogues 9-12 using as substrates ATP (100 μM) for NTPDase1,2,3,8 and pNP-TMP (100 μM) for NPP1,3 (Panel A); and ATP (100 μM) was used as the substrate for NPP1 (Panel B);
(§2) At least 2 independent experiments were performed. In panel A, the activity with 100 μM ATP was set as 100%, which was 287±31, 395±67, 278±22, 119±26 nmol of Pi·min−1·mg of protein−1 for human NTPDase1, -2, -3 and -8, respectively, and the activity with 100 μM pNP-TMP was set as 100% which was 67±5, 21±1 nmol of p-nitrophenol·min−1·mg of protein−1 for human NPP1 and NPP3, respectively. In panel B, the activity with 100 μM ATP was set as 100% which was 34±7 nmol of PPi·min−1·mg of protein−1 for NPP1.

NTPDase3 = molecular target: T3, NTPDase3 (Homo sapiens, UniProt O75355); test: Inhibition of ATPase activity of human NTPDase3; type: biochemical; conditions: analogue at 100 μM; ATP 100 μM as substrate
T3 sequence (O75355 1-529): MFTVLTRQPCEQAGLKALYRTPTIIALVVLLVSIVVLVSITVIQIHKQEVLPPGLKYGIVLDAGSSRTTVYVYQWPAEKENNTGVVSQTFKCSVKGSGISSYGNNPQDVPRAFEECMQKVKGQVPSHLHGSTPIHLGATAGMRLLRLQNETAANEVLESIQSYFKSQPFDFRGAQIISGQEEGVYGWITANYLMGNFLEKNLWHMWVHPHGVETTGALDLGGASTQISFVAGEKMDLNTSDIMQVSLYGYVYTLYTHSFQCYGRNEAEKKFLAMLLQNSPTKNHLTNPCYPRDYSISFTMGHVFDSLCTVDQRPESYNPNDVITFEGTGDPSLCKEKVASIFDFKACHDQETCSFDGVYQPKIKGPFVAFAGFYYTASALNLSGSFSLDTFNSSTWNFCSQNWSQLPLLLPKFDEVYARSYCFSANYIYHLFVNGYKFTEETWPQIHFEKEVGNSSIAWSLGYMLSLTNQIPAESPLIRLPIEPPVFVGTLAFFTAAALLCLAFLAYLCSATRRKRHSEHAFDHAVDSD
Method: as §1, §2

| SMILES | Relative activity (%) ± SEM of ATP hydrolysis, NPP1 (NPP1) [%] | stability to air-oxidation [1] | inhibition of human NTPDase2 (NTPDase2) | inhibition of human NTPDase3 (NTPDase3) | inhibition at 100 µM (NTPDase3) [%] |
| --- | --- | --- | --- | --- | --- |
| O=c1ccn([C@@H]2O[C@H](COP(=S)(S)OP(=O)(O)OP(=O)(O)O)[C@@H](O)[C@H]2O)c(=O)[nH]1 (stereo partly drawn) [Analogue 10] | 0 | no new signals | no inhibition | no inhibition |  |
| O=c1ccn([C@@H]2O[C@H](COP(=S)(S)OP(=O)(O)CP(=O)(O)O)[C@@H](O)[C@H]2O)c(=O)[nH]1 (stereo partly drawn) [Analogue 11] | 0 | complete stability | negligible effects | negligible effects |  |
| O=c1ccn([C@@H]2O[C@H](COP(=S)(S)OP(=O)(O)OP(=O)(O)OP(=S)(S)OC[C@H]3O[C@@H](n4ccc(=O)[nH]c4=O)[C@H](O)[C@@H]3O)[C@@H](O)[C@H]2O)c(=O)[nH]1 (stereo partly drawn) [Analogue 12] | 0 | completely resistant | selective to NPP1 |  | 24 |
